Measurements from US11866518B2, “Bicyclic peptide ligands specific for TSLP” (BicycleTx Limited, priority 2020, dated 2024).
pKd: −log10 of the molar value. *1 amine or outer side, *2 acyl side, *3 side chain or, on linkers, in order; H or OH if unused. Where a SMILES comes first, the peptide text is derived from it. Bridges are numbered along the chain shown (N, C = ends). TATA = O=C(CC[*:1])N1CN(C(=O)CC[*:2])CN(C(=O)CC[*:3])C1

Target: TSLP (Homo sapiens, UniProt Q969D9)
Experiment: Human TSLP Surface Plasmon Resonance (SPR) binding assay
Design: The resulting construct spCD33-6×HN-TEV-hTSLP(29-159)-Avi; 6xHN tag with TEV site (N, cleaved yes); made in house; host or cells: Expi293F cells
Conditions: biotinylated human TSLP immobilized on streptavidin chip; 20° C.; steady-state or kinetic 1:1 fit; read-out: hTSLP SPR Kd

Sequence of TSLP (Q969D9 29-159): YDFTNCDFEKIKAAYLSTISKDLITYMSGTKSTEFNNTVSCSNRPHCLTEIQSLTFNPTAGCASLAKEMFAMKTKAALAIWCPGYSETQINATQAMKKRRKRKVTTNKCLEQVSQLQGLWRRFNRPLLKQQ

CC(C)C[C@@H]1NC(=O)[C@H](Cc2c[nH]c3ccccc23)NC(=O)[C@H](CC(=O)O)NC(=O)[C@@H](NC(=O)[C@H](C)N)CSCCC(=O)N2CN3CN(C2)C(=O)CCSC[C@H](NC(=O)[C@H](CC(=O)O)NC(=O)[C@H](CC(=O)O)NC1=O)C(=O)N[C@@H](Cc1c[nH]c2ccccc12)C(=O)N[C@@H](CCCCN)C(=O)NCC(=O)N[C@@H](Cc1ccccc1)C(=O)N[C@H](C(=O)N[C@@H](C)C(N)=O)CSCCC3=O [Example 141, A-(SEQ ID NO: 100)-A] (H-ACDWLDDCWKGFCA-NH2; linker 2-8-13 via TATA; N-terminus and C-terminus assumed)
pKd: 6.22

CC(C)C[C@@H]1NC(=O)[C@H](C)NC(=O)[C@@H](NC(=O)[C@H](C)N)CSCCC(=O)N2CN3CN(C2)C(=O)CCSC[C@H](NC(=O)[C@H](C(C)C)NC(=O)[C@H](Cc2c[nH]c4ccccc24)NC(=O)[C@@H]2CCCN2C(=O)[C@H](CC(=O)O)NC1=O)C(=O)N1CCC[C@H]1C(=O)N[C@@H](CCC(N)=O)C(=O)N[C@@H](Cc1c[nH]c2ccccc12)C(=O)N[C@@H](Cc1c[nH]c2ccccc12)C(=O)N[C@@H](CC(=O)O)C(=O)N[C@H](C(=O)N[C@@H](C)C(N)=O)CSCCC3=O [Example 230, A-(SEQ ID NO: 157)-A] (H-ACALDPWVCPQWWDCA-NH2; linker 2-9-15 via TATA; N-terminus and C-terminus assumed)
pKd: 6.02

CC(=O)N[C@H]1CSCCC(=O)N2CN3CN(C2)C(=O)CCSC[C@H](NC(=O)[C@H](CC(=O)O)NC(=O)[C@H](CCC(=O)O)NC(=O)[C@H](CC(C)C)NC(=O)[C@H](Cc2c[nH]c4ccccc24)NC(=O)[C@H](CCC(N)=O)NC1=O)C(=O)N[C@@H](Cc1c[nH]c2ccccc12)C(=O)N[C@@H](CCCNC(=N)N)C(=O)NCC(=O)N[C@@H](Cc1ccccn1)C(=O)N[C@H](C(N)=O)CSCCC3=O [Example 146, Ac-(SEQ ID NO: 105)]
pKd: 6.04

CC(C)C[C@@H]1NC(=O)[C@H](Cc2c[nH]c3ccccc23)NC(=O)[C@H](Cc2c[nH]c3ccccc23)NC(=O)[C@H](CCC(=O)O)NC(=O)[C@H](CCC(=O)O)NC(=O)[C@@H]2CSCCC(=O)N3CN(CN(C3)C(=O)CCSC[C@@H](C(=O)N[C@@H](C)C(=O)N[C@@H](Cc3c[nH]cn3)C(=O)N3CCC[C@H]3C(N)=O)NC1=O)C(=O)CCSC[C@H](NC(=O)[C@H](C)N)C(=O)N[C@@H](CCCNC(=N)N)C(=O)N[C@@H](CC(=O)O)C(=O)N[C@@H](CC(C)C)C(=O)N[C@@H](CC(=O)O)C(=O)N1CCC[C@H]1C(=O)N[C@@H](Cc1c[nH]c3ccccc13)C(=O)N[C@@H]([C@@H](C)O)C(=O)N2 [Example 170, A-(SEQ ID NO: 128)-AHP] (H-ACRDLDPWTCEEWWLCAHP-NH2; linker 2-10-16 via TATA; N-terminus and C-terminus assumed)
pKd: 6.77

CC(C)C[C@@H]1NC(=O)[C@H](Cc2c[nH]c3ccccc23)NC(=O)[C@@H]2CSCCC(=O)N3CN(CN(C3)C(=O)CCSC[C@H](NC(=O)[C@H](CC(=O)O)NC(=O)[C@H](CC(N)=O)NC(=O)[C@H](C)N)C(=O)N[C@@H](C(C)C)C(=O)N[C@@H](Cc3c[nH]c4ccccc34)C(=O)N[C@@H](Cc3c[nH]cn3)C(=O)N[C@@H](Cc3c[nH]c4ccccc34)C(=O)N[C@@H](CCC(=O)O)C(=O)N[C@@H](Cc3ccc(O)cc3)C(=O)N[C@@H](CC(=O)O)C(=O)N2)C(=O)CCSC[C@@H](C(=O)N[C@@H](C)C(N)=O)NC(=O)[C@H](CC(=O)O)NC1=O [Example 220, AND-(SEQ ID NO: 154)-A] (H-ANDCVWHWEYDCWLDCA-NH2; linker 4-12-16 via TATA; N-terminus and C-terminus assumed)
pKd: 6.47

CC(C)C[C@@H]1NC(=O)[C@H](Cc2c[nH]c3ccccc23)NC(=O)[C@H](Cc2c[nH]c3ccccc23)NC(=O)[C@H](CO)NC(=O)[C@H](CO)NC(=O)[C@@H]2CSCCC(=O)N3CN(CN(C3)C(=O)CCSC[C@H](NC(=O)[C@H](CCC(N)=O)NC(=O)[C@H](Cc3c[nH]cn3)NC(=O)[C@@H](NC(=O)[C@H](CC(N)=O)NC(=O)[C@@H](NC(=O)[C@@H](N)CCCNC(=N)N)C(C)C)[C@@H](C)O)C(=O)N[C@@H](CCCNC(=N)N)C(=O)N[C@@H](CC(=O)O)C(=O)N[C@@H](CC(C)C)C(=O)N[C@@H](CC(=O)O)C(=O)N3CCC[C@H]3C(=O)N[C@@H](Cc3c[nH]c4ccccc34)C(=O)N[C@@H]([C@@H](C)O)C(=O)N2)C(=O)CCSC[C@@H](C(=O)N[C@@H](C)C(N)=O)NC1=O [Example 190, RVNTHQ-(SEQ ID NO: 122)-A]
pKd: 7.09

CC(=O)N[C@H]1CSCCC(=O)N2CN3CN(C2)C(=O)CCSC[C@H](NC(=O)[C@H](CC(=O)O)NC(=O)[C@H](CCC(=O)O)NC(=O)[C@H](CC(C)C)NC(=O)[C@H](Cc2c[nH]c4ccccc24)NC(=O)[C@H](CCC(N)=O)NC1=O)C(=O)N[C@@H](Cc1c[nH]c2ccccc12)C(=O)N[C@@H](CCCNC(=N)N)C(=O)NCC(=O)N[C@@H](Cc1ccc(Cl)c(F)c1)C(=O)N[C@H](C(N)=O)CSCCC3=O [Example 41, Ac-(SEQ ID NO: 37)]
pKd: 7.62

CC(C)C[C@@H]1NC(=O)[C@H](Cc2c[nH]c3ccccc23)NC(=O)[C@H](Cc2c[nH]c3ccccc23)NC(=O)[C@H]([C@@H](C)O)NC(=O)[C@H](CCC(=O)O)NC(=O)[C@@H]2CSCCC(=O)N3CN(CN(C3)C(=O)CCSC[C@H](N)C(=O)N[C@@H](CCC(N)=O)C(=O)N[C@@H](CCC(=O)O)C(=O)N[C@@H](CC(C)C)C(=O)N[C@@H](CC(=O)O)C(=O)N3CCC[C@H]3C(=O)N[C@@H](Cc3c[nH]c4ccccc34)C(=O)N[C@@H]([C@@H](C)O)C(=O)N2)C(=O)CCSC[C@@H](C(N)=O)NC1=O [Example 181, (SEQ ID NO: 132)] (H-CQELDPWTCETWWLC-NH2; linker 1-9-15 via TATA; N-terminus and C-terminus assumed)
pKd: 6.51

CC(C)C[C@@H]1NC(=O)[C@H](Cc2c[nH]c3ccccc23)NC(=O)[C@H](Cc2c[nH]c3ccccc23)NC(=O)[C@H]([C@@H](C)O)NC(=O)[C@H](CCC(=O)O)NC(=O)[C@@H]2CSCCC(=O)N3CN(CN(C3)C(=O)CCSC[C@H](N)C(=O)N[C@@H]([C@@H](C)O)C(=O)N[C@@H](CCC(=O)O)C(=O)N[C@@H](CC(C)C)C(=O)N[C@@H](CC(=O)O)C(=O)N3CC(F)(F)C[C@H]3C(=O)N[C@@H](Cc3c[nH]c4ccccc34)C(=O)N[C@@H]([C@@H](C)O)C(=O)N2)C(=O)CCSC[C@@H](C(N)=O)NC1=O [Example 182, (SEQ ID NO: 133)]
pKd: 5.89

CC(=O)N[C@H]1CSCCC(=O)N2CN3CN(C2)C(=O)CCSC[C@@H]2NC(=O)[C@H](CC(=O)O)NC(=O)[C@H](CCC(=O)O)NC(=O)[C@H](CC(C)C)NC(=O)[C@H](CCn4cc(nn4)CC[C@H](NC(=O)[C@H](Cc4c[nH]c5ccccc45)NC2=O)C(=O)NCC(=O)N[C@@H](Cc2ccc(F)cc2)C(=O)N[C@H](C(N)=O)CSCCC3=O)NC(=O)[C@H](CCC(N)=O)NC1=O [Example 249]
pKd: 5.92

CC(=O)N[C@H]1CSCCC(=O)N2CN3CN(C2)C(=O)CCSC[C@H](NC(=O)[C@H](CC(=O)O)NC(=O)[C@H](CCC(=O)O)NC(=O)[C@H](CC[S+](C)[O-])NC(=O)[C@H](Cc2c[nH]c4ccccc24)NC(=O)[C@H](CCC(N)=O)NC1=O)C(=O)N[C@@H](Cc1c[nH]c2ccccc12)C(=O)N[C@@H](CCCNC(=N)N)C(=O)NCC(=O)N[C@@H](Cc1ccccc1)C(=O)N[C@H](C(N)=O)CSCCC3=O (stereo partly drawn) [Example 147, Ac-(SEQ ID NO: 106)]
pKd: 6.03

CC(C)C[C@@H]1NC(=O)[C@H](CC(=O)O)NC(=O)[C@H](CCCCN)NC(=O)[C@@H](NC(=O)[C@H](C)N)CSCCC(=O)N2CN3CN(C2)C(=O)CCSC[C@H](NC(=O)[C@H]([C@@H](C)O)NC(=O)[C@H](Cc2c[nH]c4ccccc24)NC(=O)[C@@H]2CCCN2C(=O)[C@H](CC(=O)O)NC1=O)C(=O)N[C@@H](CO)C(=O)N[C@@H](CO)C(=O)N[C@@H](Cc1c[nH]c2ccccc12)C(=O)N[C@@H](Cc1c[nH]c2ccccc12)C(=O)N[C@@H](CCC(=O)O)C(=O)N[C@H](C(=O)N[C@@H](C)C(=O)N1CCC[C@H]1C(=O)N[C@@H](CC(N)=O)C(N)=O)CSCCC3=O [Example 167, A-(SEQ ID NO: 125)-APN] (H-ACKDLDPWTCSSWWECAPN-NH2; linker 2-10-16 via TATA; N-terminus assumed)
pKd: 6.77

CC(C)C[C@@H]1NC(=O)[C@H](Cc2c[nH]c3ccccc23)NC(=O)[C@@H]2CSCCC(=O)N3CN(CN(C3)C(=O)CCSC[C@H](NC(=O)[C@H](CCC(=O)O)NC(=O)[C@H](CO)NC(=O)[C@@H]3CCCN3C(=O)[C@H](CO)NC(=O)[C@H](CCCNC(=N)N)NC(=O)[C@@H](N)CC(N)=O)C(=O)N[C@@H](CC(=O)O)C(=O)N[C@@H](Cc3c[nH]c4ccccc34)C(=O)N[C@@H](Cc3c[nH]cn3)C(=O)N[C@@H](Cc3c[nH]c4ccccc34)C(=O)N[C@@H](CCC(=O)O)C(=O)N[C@@H](Cc3ccc(O)cc3)C(=O)N[C@@H](CC(=O)O)C(=O)N2)C(=O)CCSC[C@@H](C(N)=O)NC(=O)[C@H](CO)NC1=O [Example 217, NRSPSE-(SEQ ID NO: 144)]
pKd: 6.07

CC(=O)N[C@H]1CSCCC(=O)N2CN3CN(C2)C(=O)CCSC[C@H](NC(=O)[C@H](CC(=O)O)NC(=O)[C@H](CCC(=O)O)NC(=O)[C@H](CC(C)C)NC(=O)[C@H](Cc2c[nH]c4ccccc24)NC(=O)[C@H](CCC(N)=O)NC1=O)C(=O)N[C@@H](Cc1c[nH]c2ccccc12)C(=O)N[C@@H](C)C(=O)NCC(=O)N[C@@H](Cc1ccccc1)C(=O)N[C@H](C(N)=O)CSCCC3=O [Example 149, Ac-(SEQ ID NO: 108)]
pKd: 5.96

CC(C)C[C@@H]1NC(=O)[C@H](Cc2c[nH]c3ccccc23)NC(=O)[C@H](CCC(N)=O)NC(=O)[C@@H](N)CSCCC(=O)N2CN3CN(C2)C(=O)CCSC[C@H](NC(=O)[C@H](CC(=O)O)NC(=O)[C@H](CCC(=O)O)NC1=O)C(=O)N[C@@H](Cc1c[nH]c2ccccc12)C(=O)N[C@@H](CCCNC(=N)N)C(=O)NCC(=O)N[C@@H](Cc1ccccc1)C(=O)N[C@H](C(=O)N[C@@H](CC(=O)O)C(=O)N[C@H](C(=O)N[C@@H](CO)C(=O)N[C@H](C(=O)N[C@@H](Cc1c[nH]cn1)C(=O)N[C@@H](CO)C(N)=O)[C@@H](C)O)[C@@H](C)O)CSCCC3=O [Example 128, (SEQ ID NO: 38)-DTSTHS] (H-CQWLEDCWRGFCDTSTHS-NH2; linker 1-7-12 via TATA)
pKd: 6.42
